Measured values from patent US6013278A (priority 1997, dated 2000).
“Also recorded” adds a separate entry of the source.

Key:
[1] = tested on: cell growth; conditions: in vitro, cited from earlier work
[2] = tested on: BT-20 cells; assay: Cellular uptake of free and liposomal antineoplastons into BT-20 cells (reduction of media concentration, HPLC); conditions: for level of uptake associated with equivalent antineoplastic activity (IC50): at IC50 concentration (~0.8 mM CN, 15 mM PN); for dependence of cellular uptake on media concentration: end of eight hour incubation; for uptake rate on second and third days / cellular uptake (qualitative): free compound; for uptake rate on second and third days: day two and three vs first day; for cellular uptake (qualitative): time course up to 72 hours
Description: The time-course and concentration dependency of the cellular uptake of free and liposomally formulated antineoplaston agents in Examples 2, 3 and 4 were assayed by monitoring reductions in media concentrations. The uptake of these antineoplaston agents were examined in BT-20 human breast cancer cells.
Cellular uptake of free D- and free L-CN (3-phenylacetyl-amino-2, 6, piperidinedione) were investigated in BT-20 cells. Cells were plated in 200 μl of media (3,000 cells/well--96 well plates), and 24 or 96 hrs later the plating media was replaced with fresh media containing free CN at final concentrations of 100, 300, 500, 800 μM. The levels of CN remaining in the media were determined following 0, 2, 4, 6, 8, 24, 48 and 72 hours of incubation. When the cellular uptake of liposomal antineoplastons was assessed, the total levels of liposomes were equivalent across all levels of the test agents.
At the indicated times after the addition of the test compound, the media was harvested, centrifuged (110 ×g; 10 min; 4° C.) and the supernatant stored at -70° C. until assayed using a validated HPLC method. For each test agent, all concentrations were tested at all time points and there were six replicate wells at each time point. Media from the replicate wells was pooled for the HPLC analysis. Compound levels were determined with at least two HPLC injections and the variance between injections was less than 10%.
Cellular uptake of free PN was investigated in BT-20 cells.
Cellular uptake of liposomal CN was investigated in BT-20 cells.

[3] = tested on: BT-20 cells; assay: Antineoplastic activity of free and liposomal CN (viable cell number, trypan blue); format: cell-based, human; conditions: single administration, 800 uM; listed as free CN
Description: To determine whether this effect leads to enhanced antineoplastic activity, the antineoplastic activity of free and liposomal CN was examined in BT-20 cells. […] Control cells in the liposomal condition received the equivalent levels of liposomes without CN. Following a 24, 48 or 72 hr incubation, cells from six replicate wells were pooled and the number of viable cells determined using trypan blue and a hemocytometer.

[4] = tested on: BT-20 human breast cancer cells; assay: Uptake and intracellular levels of free and bound CN and PG/Iso-PG (intracellular metabolism of free and liposomal CN); format: in vitro ADME; conditions: 24 hr
Description: At selected times the cells were washed (3×with PBS), trypsinized, pooled, and homogenized in 200 μl of isotonic saline. […] Antineoplaston components or their derivatives found in the supernatant are considered to be unbound or "free", while antineoplaston agents in the pellet are thought to be "bound" to protein or cellular structures easily pelleted by low gravity centrifugation. […] To better understand the time course of the intracellular fate of liposomal CN, BT-20 cells were exposed as in Example 5 to liposomal CN for 1, 2 and 4 hours.

[5] = tested on: cell growth; assay: In vitro dose-response studies on individual components of antineoplaston therapy (cell growth); format: cell-based; conditions: Homo sapiens; free compound; cell line not stated (uptake example in BT-20); read-out: IC50 (antineoplastic activity)
[6] = tested on: human glioblastoma (U87) cells; assay: Antineoplastic effect of free and liposomal AS2-1, PG and PN (cell counts); conditions: U-87 MG, 72 h, read-out: IC50 (concentration producing a half maximal antineoplastic effect)
[7] = tested on: U87 cells; assay: Cellular uptake of free and liposomal PN and PG in U87 cells
Description: Experiments with this cell line plated 3000 cells per well and following a four day interval to allow the cells to enter the exponential growth phase the test agents were added. The media was replaced on day three and cell counts were obtained at day 3 and 7.

Compound: O=C1CCC(NC(=O)Cc2ccccc2)C(=O)N1 (centres unmarked) [CN, 3-phenylacetyl-amino-2,6, piperidinedione]
- suppression of cell growth ([1]; at ~0.8 mM): 50%
- antineoplastic activity on a molar basis ([1]; relative to other components): most potent antineoplastic activity
- cellular uptake by 72 hours ([2]; 72 hours): approximating that produced by liposomal CN during a two hour incubation
- level of uptake associated with equivalent antineoplastic activity (IC50) [2]: ~ 30 pmoles/cell
- dependence of cellular uptake on media concentration [2]: linearly related to media concentration
- antineoplastic activity / suppression of BT-20 cell growth [3]: ineffective in suppressing BT-20 cell growth; also recorded: no antineoplastic activity
- Uptake of CN ([4]; 800 μM CN (53 pmole/cell) added): 43.2 pmole/cell
- Free intracellular PG/Iso-PG ([4]; 800 μM CN added): 36.7 pmole/cell
- Free intracellular CN ([4]; 800 μM, ND = Not detected): intact CN cannot be found inside the cells
- IC50 [5]: ~0.8 mM

Compound: O=C1CC[C@@H](NC(=O)Cc2ccccc2)C(=O)N1 [D-CN]
- uptake rate on second and third days [2]: do not exhibit this late stage reduction in CN uptake
- cellular uptake (qualitative) [2]: rapidly and extensively taken up

Compound: O=C1CC[C@H](NC(=O)Cc2ccccc2)C(=O)N1 [L-CN]
- cellular uptake during the first six hours ([2]; free D-CN vs free L-CN): more effectively than free D-CN
- uptake rate on second and third days [2]: the rate of uptake is diminished on the second and third days of the incubation
- cellular uptake (qualitative) [2]: rapidly and extensively taken up

Compound: O=C(O)Cc1ccccc1 [PN, phenylacetate]
- IC50 [6]: ~15 mM
- uptake per cell ([2]; BT-20 cells, 30 mM, comparison value): ~ 55 pmole
- level of uptake associated with equivalent antineoplastic activity (IC50) [2]: ~ 30 pmoles/cell
- dependence of cellular uptake on media concentration [2]: linearly related to media concentration
- cellular uptake (qualitative) [2]: concentration- and time-dependent take up
- time to completion of uptake ([2]; high concentrations (e.g., 30 mM)): completed within the first two hours
- cellular uptake ([2]; initial media concentration 30 mM): ~ 54 pmoles/BT-20 cell
- cellular uptake ([2]; media concentration 3.0 mM): ~ 14 pmoles/BT-20 cell
- uptake per cell ([7]; 30 mM free PN, U87 cells, 3 day): 50 pmol
- uptake of free compound compared (PN vs PG) ([7]; 3 day interval): equivalent and is concentration dependent
- IC50 [5]: ~15 mM
